# Measurements reported in patent US6376753B1, “PURIFIED CYTOCHROME P450 POLYPEPTIDE CYP76B1 FROM HELIANTHUS TUBEROSUS AND ITS APPLICATIONS AS BIOCATALYST IN PARTICULAR FOR THE DEGRADATION OF ENVIRONMENTAL POLLUTANTS AND FOR ALTERING THE RESISTANCE OF PLANTS SENSITIVE TO PHENYLUREA FAMILY OF HERBICIDES” (priority 1997, dated 2002).
# pKd: −log10 of the molar value. Like-named read-outs stand apart in the source and are kept apart here.
# Tests used:
# [1] = tested on: 7-methoxyresorufin O-dealkylase activity; experiment: Induction of 7-methoxyresorufin O-demethylase activity in tuber slices; assay type: cell-based, Helianthus tuberosus; details: 48 hours of treatment
# Experimental: Slices of dormant tuber of Helianthus tuberosus were placed under survival conditions in oxygenated distilled water and stirred with a current of compressed air in the presence of various metals or organic compounds (effectors).
# A control was performed with DMSO alone.
# [2] = target: T1, CYP76B1 (Helianthus tuberosus, UniProt O23976); experiment: CYP76B1-dependent metabolism (O-/N-dealkylation) in microsomes of transformed yeast; details: for Activity: + NADPH; for turnover of the dealkylation: for phenylureas first dealkylation; for conversion / dealkylation by CYP76B1: transformed yeast microsomes, NADPH; for metabolite detection for endogenous molecules: transformed WAT11 yeast microsomes
# T1 sequence (O23976 1-490): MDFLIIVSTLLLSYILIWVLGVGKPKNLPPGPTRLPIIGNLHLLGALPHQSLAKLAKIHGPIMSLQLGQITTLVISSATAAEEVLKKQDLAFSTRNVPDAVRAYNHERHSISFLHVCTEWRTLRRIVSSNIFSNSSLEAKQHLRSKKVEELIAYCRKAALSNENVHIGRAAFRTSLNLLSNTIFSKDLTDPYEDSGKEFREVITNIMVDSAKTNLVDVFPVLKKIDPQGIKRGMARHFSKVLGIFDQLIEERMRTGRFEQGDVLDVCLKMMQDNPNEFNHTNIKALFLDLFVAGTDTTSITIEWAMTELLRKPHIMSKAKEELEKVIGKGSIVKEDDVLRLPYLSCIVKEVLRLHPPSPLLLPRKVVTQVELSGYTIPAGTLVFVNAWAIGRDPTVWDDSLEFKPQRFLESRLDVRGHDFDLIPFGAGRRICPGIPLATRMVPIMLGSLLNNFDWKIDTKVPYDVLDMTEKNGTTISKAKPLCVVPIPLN
# Experimental: BamHI and EcoRI sites were introduced by PCR just upstream of the ATG and downstream of the stop codon of the CYP76B1 coding sequence, using the primers 5′-[…] (sense) 5′-[…] (reverse) (SEQ ID NO 3 and SEQ ID NO 4 respectively). The PCR mixture was preheated for 2 min at 92° C. before addition of 1 unit of Pfu DNA polymerase (Stratagene). After 3 min additional heating at 92° C., 30 cycles of amplification were carried out as follows 1 min denaturation at 92° C., 1 min annealing at 52° C., 2 min extension at 72° C. The reaction was completed by 10 min extension at 72° C. After BamHI/EcoRI digestion, the 1470 bp coding sequence was inserted into the vector pYeDP60 (32). Transformation of Saccharomyces cerevisiae W(R), WAT11 and WAT21, and yeast growth were conducted according to Pompon et al. (32). Yeast microsomes were prepared as described in Pierrel et al. (33) with addition of 1% SAB, 2 mM β-mercaptoethanol, 10 mM sodium disulfite and 1 mM PMSF to the extraction buffer. When indicated, 0.5 mM δ-aminolevulinic acid methyl ester (Sigma) was added to the induction medium, or cells were stored at 4° C. for 24 h before preparation of the microsomes.
# (§1) Spectrophotometric measurements of P450 content and substrate binding were performed as in (Gabriac et al., 1991) and SDS-PAGE was performed as in Gabriac et al. (34). Gels were stained with Coomassie Blue R-250. Alkoxycoumarins and alkoxyresorufins O-dealkylation was measured by fluorometry (Werck-Reichhart et al., 1990). The data are means ± S.D. of triplicates.
# The conversion of other molecules was assayed by TLC or HPLC analysis of polar metabolites formed from radiolabeled compounds (Cabello-Hurtado et al., 1998a, b). NADPH-cytochrome c reductase was assayed according to (Benveniste et al., 1986). Kinetic data were fitted using the nonlinear regression program […] (Duggleby, 1984).
# 10 μL of non-immune serum or of serum raised against purified ECOD fraction were preincubated 2 min at room temperature with 10 μL of microsomes before addition of the reaction mix. n.d.: not detectable.
# Conversion was estimated from the sum of the two polar metabolites detected after TLC analysis. Data are means + S.D. of two to four determinations. n.d.: not detected.
# CYP76B1 concentrations in the MCOD, ECOD, MROD and EROD fluorometric assays were 1.5 nM or 2.1 nM, depending on the coexpressed ATR1 or yeast reductases. In the CTUDM assays, CYP76B1 concentrations were 1.7 nM (ATR1) and 8 nM (yeast), respectively. It was 12 nM for the determination of the catalytic parameters of monodemethyl-CTUDM, and 1.7 nM (ATR1) or 20 nM (yeast) in the IPUDM assays. Products were quantified by direct TLC analysis of 100 μL of the acidified incubation medium after 6 min incubation at 30° C. for the CTUDM and IPUDM assays, and after 9 min incubation for the monodemethyl-CTUDM.
# [3] = target: T1, CYP76B1; experiment: biochemical; details: for ΔAmax × 10^−3: at saturating ligand concentration
# Experimental: as §1
# The binding of substrates into the catalytic site of a P450 usually induces a shift of its maximum of absorbance, redox potential and iron spin state (Raag and Poulos, 1989) resulting from the displacement of the water sixth ligand of the heme iron. It is easily detected by differential spectrophotometry as a so-called type I spectrum with a peak at 390 nm and a trough at 420 nm (Jefcoate, 1978). The variation of the differential absorbance ΔA390-420 versus substrate concentration allows the calculation of an apparent dissociation constant (Ks). A high ΔAmax induced by the ligand is usually an indication of correct positioning for catalysis.
# CYP76B1 was 60 nM in the assays. Difference spectra were recorded after the addition of increasing concentrations of ligands to the sample cuvette. An equal volume of the herbicide solvent (DMSO) was added to the reference. Ks and ΔAmax at saturating ligand concentration were calculated from the double-reciprocal plots of ΔA(390-420 nm) versus substrate concentrations.
# [4] = coexpressed reductase ATR1 (WAT11)
# [5] = coexpressed yeast reductase (W(R))
# [6] = read-out: KS (apparent dissociation constant), CYP76B1 60 nM, ΔA(390-420 nm) double-reciprocal plots
compound,measurement,setting,value
Cc1ccc2cc3c(ccc4ccccc43)c3c2c1CC3 [3-methylcholanthrene],induction of 7-methoxyresorufin O-dealkylase activity,[1],very strongly induced
CCOc1ccc2nc3ccc(=O)cc-3oc2c1 [7-ethoxyresorufin],Activity,[2]; W(R) strain,5.1 pkat mg-1 protein
same,turnover of the dealkylation,[2]; W(R) strain,6 min⁻¹
same,Activity,[2]; WAT11 strain,11.6 pkat mg-1 protein
same,turnover of the dealkylation,[2]; WAT11 strain,22 min⁻¹
same,Kcat,[2]; [4],0.467 s⁻¹
same,Km,[2]; [4],0.17 µM
"COc1ccc2ccc(=O)oc2c1 [7-methoxycoumarin, 7-Methoxycoumarin]",Activity,[2]; W(R) strain,10.9 pkat mg-1 protein
same,turnover of the dealkylation,[2]; W(R) strain,13 min⁻¹
same,Activity,[2]; WAT11 strain,16.4 pkat mg-1 protein
same,turnover of the dealkylation,[2]; WAT11 strain,31 min⁻¹
COc1ccc2nc3ccc(=O)cc-3oc2c1 [7-methoxyresorufin],Activity,[2]; W(R) strain,12.6 pkat mg-1 protein
same,turnover of the dealkylation,[2]; W(R) strain,15 min⁻¹
same,Activity,[2]; WAT11 strain,18.6 pkat mg-1 protein
same,turnover of the dealkylation,[2]; WAT11 strain,41 min⁻¹
same,Kcat,[2]; [4],0.683 s⁻¹
same,Km,[2]; [4],0.17 µM
same,Kcat,[2]; coexpressed reductase ATR2,0.717 s⁻¹
same,Km,[2]; coexpressed reductase ATR2,0.185 µM
same,Kcat,[2]; [5],0.25 s⁻¹
same,Km,[2]; [5],0.23 µM
COc1c2occc2cc2ccc(=O)oc12 [8-methoxypsoralen],induction of 7-methoxyresorufin O-dealkylase activity,[1],very strongly induced
CON(C)C(=O)Nc1ccc(Br)c(Cl)c1 [Chlorbromuron],pKd,[3],5.28
same,ΔAmax × 10^−3,[3]; CYP76B1 60 nM,6.7 × 10^−3
same,conversion / dealkylation by CYP76B1,[2],dealkylates
"CC(C)c1ccc(NC(=O)N(C)C)cc1 [Isoproturon, N-(4-isopropylphenyl)-N′,N′-dimethylurea]",pKd,[3],4.26
same,ΔAmax × 10^−3,[3]; CYP76B1 60 nM,8.2 × 10^−3
same,Activity,[2]; W(R) strain,128 pkat mg-1 protein
same,turnover of the dealkylation,[2]; W(R) strain,40 min⁻¹
same,Activity,[2]; WAT11 strain,475 pkat mg-1 protein
same,turnover of the dealkylation,[2]; WAT11 strain,147 min⁻¹
same,Kcat,[2]; [4],2.45 s⁻¹
same,Kcat,[2]; [5],0.667 s⁻¹
CON(C)C(=O)Nc1ccc(Br)cc1 [Metobromuron],pKd,[3]; [6],5.21
CON(C)C(=O)Nc1ccc(Cl)cc1 [Monolinuron],pKd,[3],5.32
same,conversion / dealkylation by CYP76B1,[2],dealkylates
CC1=CC(=O)CC(C)(C)C1(O)/C=C/C(C)=C\C(=O)O (stereo not shown) [abcisic acid],metabolite detection for endogenous molecules,[2],No metabolite
c1ccc2c(c1)cc1ccc3cccc4ccc2c1c34 [benzo(a)pyrene],induction of 7-methoxyresorufin O-dealkylase activity,[1],very strongly induced
"O=C(O)c1ccccc1 [benzoate, Benzoic acid]",metabolite detection for endogenous molecules,[2],No metabolite
"CCCCCCCCCC(=O)O [capric, capric acid]",metabolite detection for endogenous molecules,[2],No metabolite
"O=C(O)/C=C/c1ccccc1 [cinnamate, trans-Cinnamic acid]",metabolite detection for endogenous molecules,[2],No metabolite
CCCCC(CC)COC(=O)c1ccccc1C(=O)OCC(CC)CCCC (stereo not shown) [diethylhexylphthalate],induction of 7-methoxyresorufin O-dealkylase activity,[1],very strongly induced
"COc1cc(/C=C/C(=O)O)ccc1O [ferulate, ferulic acid]",metabolite detection for endogenous molecules,[2],No metabolite
COc1cc2oc(=O)ccc2cc1O [isoscopoletin],metabolite detection for endogenous molecules,[2],No metabolite
"CCCCCCCCCCCC(=O)O [lauric, lauric acid]",metabolite detection for endogenous molecules,[2],No metabolite
Cl[C@H]1[C@H](Cl)[C@@H](Cl)[C@@H](Cl)[C@H](Cl)[C@H]1Cl [lindane],induction of 7-methoxyresorufin O-dealkylase activity,[1],very strongly induced
"CCCCC/C=C\C/C=C\CCCCCCCC(=O)O [linoleic, linoleic acid]",metabolite detection for endogenous molecules,[2],No metabolite
"CC/C=C\C/C=C\C/C=C\CCCCCCCC(=O)O [linolenic, linolenic acid]",metabolite detection for endogenous molecules,[2],No metabolite
CNC(=O)Nc1ccc(C)c(Cl)c1 [monodemethyl-chlortoluron],Kcat,[2]; [4],0.767 s⁻¹
same,Km,[2]; [4],81 µM
same,conversion / dealkylation by CYP76B1,[2],actively dealkylated
"CCCCCCCCCCCCCC(=O)O [myristic, myristic acid]",metabolite detection for endogenous molecules,[2],No metabolite
"O=C1OC(=O)c2cccc3cccc1c23 [naphthalic anhydride, 1,8-Naphthalic anhydride]",induction of 7-methoxyresorufin O-dealkylase activity,[1],very strongly induced
O=C1C[C@@H](c2ccc(O)cc2)Oc2cc(O)cc(O)c21 [naringenin],metabolite detection for endogenous molecules,[2],No metabolite
C=C(CC[C@@H](C)[C@H]1CC[C@@]2(C)C3=C(CC[C@]12C)[C@@]1(C)CC[C@H](O)[C@@H](C)[C@@H]1CC3)C(C)C [obtusifoliol],metabolite detection for endogenous molecules,[2],No metabolite
"CCCCCCCC/C=C\CCCCCCCC(=O)O [oleic, oleic acid]",metabolite detection for endogenous molecules,[2],No metabolite
"CCCCCCCCCCCCCCCC(=O)O [palmitic, palmitic acid]",metabolite detection for endogenous molecules,[2],No metabolite
COc1cc2ccc(=O)oc2cc1O [scopoletin],metabolite detection for endogenous molecules,[2],No metabolite
Metoxuron,ΔAmax × 10^−3,[3]; CYP76B1 60 nM,6.1 × 10^−3
same,pKd,[3]; [6],3.93
mercury,induction of 7-methoxyresorufin O-dealkylase activity,[1],very strongly induced
